This is an account of results in patent US8822449B2, “Substituted aminoindanes and analogs thereof, and the pharmaceutical use thereof” (Sanofi, priority 2008, dated 2014).

A value given as a limit tells only on which side of the number the result lay.

The first experiment concerns the target T1, sodium-proton exchanger of subtype 3 (NHE3) (Homo sapiens, UniProt P48764).
T1 construct: expressed in transfected cells
T1 sequence (P48764 26-834): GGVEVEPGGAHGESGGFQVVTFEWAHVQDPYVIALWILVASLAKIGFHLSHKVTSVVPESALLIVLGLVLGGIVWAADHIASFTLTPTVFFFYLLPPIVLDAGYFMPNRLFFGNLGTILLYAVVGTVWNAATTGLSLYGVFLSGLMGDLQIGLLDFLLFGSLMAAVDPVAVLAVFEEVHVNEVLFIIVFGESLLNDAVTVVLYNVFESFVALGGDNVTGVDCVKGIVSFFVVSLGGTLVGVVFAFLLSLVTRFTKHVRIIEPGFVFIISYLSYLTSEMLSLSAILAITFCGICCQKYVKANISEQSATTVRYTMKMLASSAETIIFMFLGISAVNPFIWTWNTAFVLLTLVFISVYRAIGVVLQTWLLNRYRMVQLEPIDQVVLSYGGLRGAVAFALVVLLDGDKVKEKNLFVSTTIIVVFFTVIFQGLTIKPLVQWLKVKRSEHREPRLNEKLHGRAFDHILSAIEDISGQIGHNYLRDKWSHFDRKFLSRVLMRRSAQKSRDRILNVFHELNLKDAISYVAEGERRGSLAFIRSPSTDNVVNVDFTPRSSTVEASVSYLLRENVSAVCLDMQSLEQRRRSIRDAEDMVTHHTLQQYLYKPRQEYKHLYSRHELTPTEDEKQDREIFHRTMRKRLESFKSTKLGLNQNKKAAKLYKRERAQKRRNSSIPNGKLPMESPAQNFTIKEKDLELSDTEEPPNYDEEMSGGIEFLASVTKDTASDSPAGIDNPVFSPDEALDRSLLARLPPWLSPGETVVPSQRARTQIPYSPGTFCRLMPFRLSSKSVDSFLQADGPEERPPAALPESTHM
As to the kind of experiment: Recovery of intracellular pH (pHi) after acidification in LAP1 cells stably expressing NHE3 (BCECF fluorescence, FLIPR). The following applies: Activity range (inhibitory effect on NHE3), LAP1 cells stably expressing NHE3; pH recovery after acidification; range 1 is % inhibition at 10 μM. The experiment is classed as cell-based.
`CN(C)S(=O)(=O)c1ccc(O[C@H]2c3ccccc3C[C@@H]2N2CCCC2)c(Cl)c1` (racemic) [Example 447, 3-chloro-N,N-dimethyl-4-(rac-trans-(1,2)-2-pyrrolidin-1-ylindan-1-yloxy)benzenesulfonamide] displayed an IC50 of under 1000 nM.

In turn, `O=C1CCCN1c1cccc(O[C@H]2c3ccccc3C[C@@H]2N2CCCC2)c1` (racemic) [Example 255, 1-[3-(rac-trans-(1,2)-2-pyrrolidin-1-ylindan-1-yloxy)phenyl]pyrrolidin-2-one] displayed an IC50 of 1000 to 10000 nM.

The experiment is the same for the next values; noted with them: LAP1 cells stably expressing NHE3; pH recovery after acidification; range 1 is % inhibition at 10 μM; read-out: Activity range (inhibitory effect on NHE3).
As for `O=C1CCCN1c1ccc(Cl)c(O[C@H]2c3cc(Cl)cc(F)c3C[C@@H]2N2CC[C@@H](O)C2)c1` [Example 341, 1-{4-chloro-3-[(1S,2S)-6-chloro-4-fluoro-2-((R)-3-hydroxypyrrolidin-1-yl)indan-1-yloxy]phenyl}pyrrolidin-2-one], the IC50 was under 1000 nM. On the same count and under the same terms, for `CS(=O)(=O)c1ccc(O[C@H]2c3ccccc3C[C@@H]2N2CCNCC2)cc1` (racemic) [Example 272, 1-[rac-trans-(1,2)-1-(4-methanesulfonylphenoxy)indan-2-yl]piperazine] the value was 1000 to 10000 nM; for `Cc1nnc(C)n1-c1ccc(O[C@H]2c3cc(Cl)ccc3C[C@@H]2N2CC[C@@H](F)C2)c(F)c1` [Example 563, 4-{4-[trans-(1S,2S)-6-chloro-2-((R)-3-fluoropyrrolidin-1-yl)indan-1-yloxy]-3-fluorophenyl}-3,5-dimethyl-4H-[1,2,4]triazole], under 1000 nM; for `CC(=O)Nc1cccc(O[C@H]2c3ccccc3C[C@@H]2N2CCCCCC2)c1` (racemic) [Example 636, N-[3-(rac-trans-(1,2)-2-azepan-1-ylindan-1-yloxy)phenyl]acetamide], under 1000 nM. Still for that read-out and setting: the same measure for `Cc1c(Cl)cccc1O[C@@H]1c2ccccc2C[C@H]1N1C[C@H]2CNC[C@H]2C1` (racemic) [Example 6, 2-[rac-trans-(1,2)-1-(3-chloro-2-methylphenoxy)indan-2-yl]octahydropyrrolo[3,4-c]pyrrole]: 1000 to 10000 nM; for `c1ccc2c(c1)C[C@H](N1CCCC1)[C@H]2Oc1cccc2cccnc12` (racemic) [Example 595, 8-(rac-trans-(1,2)-2-pyrrolidin-1-ylindan-1-yloxy)quinoline]: 1000 to 10000 nM; for `CS(=O)(=O)c1ccc(O[C@H]2c3c(Cl)cc(Cl)cc3C[C@@H]2N2CCNCC2)cc1` (racemic) [Example 287, 1-[rac-trans-(1,2)-5,7-dichloro-1-(4-methanesulfonylphenoxy)indan-2-yl]piperazine]: under 1000 nM. On the same count and under the same terms, the same measure for `CS(=O)(=O)c1ccc(O[C@H]2c3ccccc3C[C@@H]2N2CCCC2)cc1` (racemic) [Example 273, 1-[rac-trans-(1,2)-1-(4-methanesulfonylphenoxy)indan-2-yl]pyrrolidine]: under 1000 nM.

`N#Cc1cc(Cl)ccc1O[C@H]1c2ccccc2CC[C@@H]1N1CCC[C@H](N)C1` (racemic) [Example 371, 2-[rac-trans-(1,2)-2-((S)-3-aminopiperidin-1-yl)-1,2,3,4-tetrahydronaphthalen-1-yloxy]-5-chlorobenzonitrile]: the inhibition at 10 µM is 20 to 50%.

In the case of `Cc1nnc(C)n1-c1ccc(O[C@H]2c3cc(Cl)cc(F)c3C[C@@H]2NC2CCCC2)c(F)c1` [Example 749, {trans-(1S,2S)-6-Chloro-1-[4-(3,5-dimethyl-[1,2,4]triazol-4-yl)-2-fluoro-phenoxy]-4-fluoro-indan-2-yl}-cyclopentyl-amine], the IC50 lay in the range of 1000 to 10000 nM. For the molecule `CS(=O)(=O)c1ccc(CO[C@H]2c3cc(Cl)cc(Cl)c3C[C@@H]2N2CC[C@@H](O)C2)c(Cl)c1` [Example 24, (R)-1-[(1S,2S)-4,6-dichloro-1-(2-chloro-4-methanesulfonylbenzyloxy)indan-2-yl]pyrrolidin-3-ol], the inhibition at 10 µM lay within 20 to 50%.

For the molecule `Clc1cc(Cl)c2c(c1)[C@H](Oc1ccc(-n3cncn3)cc1)[C@@H](N1CCNCC1)C2` (racemic) [Example 276, 1-[rac-trans-(1,2)-4,6-dichloro-1-(4-[1,2,4]triazol-1-ylphenoxy)indan-2-yl]piperazine], the IC50 is under 1000 nM. Turning to `N[C@@H]1CCCN([C@H]2CCc3ccccc3[C@@H]2Oc2ccc(F)c(Cl)c2)C1` (racemic) [Example 52, (R)-1-[rac-trans-(1,2)-1-(3-chloro-4-fluorophenoxy)-1,2,3,4-tetrahydronaphthalen-2-yl]piperidin-3-ylamine], the inhibition at 10 µM was 20 to 50%. Consider `Cc1nc2cc(O[C@@H]3c4ccccc4C[C@H]3N3CCC(CN)C3)ccc2s1` (mixture of isomers) [Example 608, C-{1-[rac-trans-(1,2)-1-(2-methylbenzothiazol-5-yloxy)indan-2-yl]pyrrolidin-3-yl}methylamine], for which the IC50 was in the range of 1000 to 10000 nM.

Consider `N[C@H]1CCCN([C@H]2CCc3ccccc3[C@@H]2Oc2cnc3ccccc3c2)C1` (racemic) [Example 192, (S)-1-[rac-trans-(1,2)-1-(quinolin-3-yloxy)-1,2,3,4-tetrahydronaphthalen-2-yl]piperidin-3-ylamine], for which the inhibition at 10 µM fell in the range of 20 to 50%.

`Cn1ccn(-c2ccc(Cl)c(O[C@H]3c4cc(Cl)cc(Cl)c4C[C@@H]3N3CC[C@@H](O)C3)c2)c1=O` [Example 335, 1-{4-chloro-3-[(1S,2S)-4,6-dichloro-2-((R)-3-hydroxypyrrolidin-1-yl)indan-1-yloxy]phenyl}-3-methyl-1,3-dihydroimidazol-2-one]: the IC50 was under 1000 nM. In the case of `CS(=O)(=O)c1ccc(O[C@H]2c3ccccc3C[C@@H]2N2CCC[C@@H](NCCC(F)(F)F)C2)cc1` [Example 220, {(R)-1-[trans-(1S,2S)-1-(4-methanesulfonylphenoxy)indan-2-yl]piperidin-3-yl}-(3,3,3-trifluoropropyl)amine], the IC50 was under 1000 nM. `CC(=O)Nc1cccc(OC2c3ccccc3CC2N2CC[C@@H](N3CCCC3)C2)c1` (mixture of isomers) [Example 670, N-[rac-trans-(1,2)-3-((R)-2-[1,3′]bipyrrolidinyl-1′-ylindan-]: the inhibition at 10 µM lay in the range of 20 to 50%. As for `CC(=O)Nc1cccc(O[C@H]2c3cc(Cl)cc(Cl)c3C[C@@H]2N(C)C)c1` (racemic) [Example 645, N-[3-(rac-trans-(1,2)-4,6-dichloro-2-dimethylaminoindan-1-yloxy)phenyl]acetamide], the IC50 lay within 1000 to 10000 nM. Consider `CS(=O)(=O)c1ccc(O[C@H]2c3cc(Cl)cc(Cl)c3C[C@@H]2N2CC[C@@H](C#N)C2)cc1` [Example 105, (R)-1-[trans-(1S,2S)-4,6-dichloro-1-(4-methanesulfonylphenoxy)indan-2-yl]pyrrolidine-3-carbonitrile], for which the IC50 was in the range of 1000 to 10000 nM.

Consider `NS(=O)(=O)c1ccc(O[C@H]2c3ccccc3C[C@@H]2N2CCCCC2)cc1` (racemic) [Example 465, 4-(rac-trans-(1,2)-2-piperidin-1-ylindan-1-yloxy)benzenesulfonamide], for which the IC50 was under 1000 nM. Take `Clc1cnccc1O[C@H]1c2ccccc2C[C@@H]1CN1CCOCC1` (racemic) [Example 486, 4-[1-(3-chloropyridin-4-yloxy)indan-2-ylmethyl]morpholine]: the inhibition at 10 µM lay within 20 to 50%. Turning to `CS(=O)(=O)c1ccc(O[C@H]2c3cc(Cl)cc(Cl)c3C[C@@H]2N2CC[C@H](O)C2)cc1` [Example 198, (S)-1-[trans-(1S,2S)-4,6-dichloro-1-(4-methanesulfonylphenoxy)indan-2-yl]pyrrolidin-3-ol], the IC50 was under 1000 nM. Same read-out and setting: for `N[C@@H]1CCCN([C@H]2Cc3c(Cl)cc(Cl)cc3[C@@H]2Oc2ccc(S(N)(=O)=O)cc2)C1` [Example 480, 4-[(1S,2S)-2-((R)-3-aminopiperidin-1-yl)-4,6-dichloroindan-1-yloxy]benzenesulfonamide] the value was under 1000 nM; for `CCc1ccc(O[C@@H]2c3ccccc3C[C@H]2N2CCC(CN)C2)c(C(C)(C)C)c1` (mixture of isomers) [Example 610, C-{1-[rac-trans-(1,2)-1-(2-tert-butyl-4-ethylphenoxy)indan-2-yl]pyrrolidin-3-yl}methylamine], 1000 to 10000 nM; for `NC(=O)c1cccc(O[C@@H]2c3ccccc3C[C@H]2N2C[C@H]3CNC[C@H]3C2)c1` (racemic) [Example 410, 3-[rac-trans-(1,2)-2-(hexahydropyrrolo[3,4-c]pyrrol-2-yl)indan-1-yloxy]benzamide], 1000 to 10000 nM. On the same count and under the same terms, the same measure for `Cc1nnc(C)n1-c1ccc(O[C@H]2c3cc(Cl)cc(Cl)c3C[C@@H]2N2CC[C@@](C)(O)C2)cc1` (racemic) [Example 111, (R)-1-{(1S,2S)-4,6-dichloro-1-[4-(3,5-dimethyl-[1,2,4]triazol-4-yl)phenoxy]indan-2-yl}-3-methylpyrrolidin-3-ol]: under 1000 nM.
